Some results are limits rather than exact numbers.

The test system of experiment [1] is Pyricularia oryzae. The experiment in a line: microbe, parasite or virus in culture. The conditions noted are these: 168 h, read-out: control compared to the untreated check. The format is cell-based.
In experiment [2] the test system is Phakopsora pachyrhizi. The experiment in a line: Phakopsora pachyrhizi test on soybean, preventive, greenhouse. The format is in vivo. The note with it: preventive spray on soybean, inoculated one day after treatment, read-out: control (efficacy, disease severity) compared to the untreated check. As to the method: The respective compound was dissolved in 2% dimethyl sulfoxide/acetone and then mixed with water containing emulsifier to the calibrated spray volume of 30 mL. Each spray solution was poured into a spray bottle for further application.
To test the preventive activity of a compound, healthy young soybean plants, raised in the greenhouse, were sprayed with the active compound preparation at the stated application rate inside the spray cabinets using hollow cone nozzles. One day after treatment, the plants were inoculated with a conidial suspension containing 2×10^5 Phakopsora pachyrhizi inoculum. The inoculated plants were then kept in a greenhouse chamber at 22-24° C. temperature and 80-90% relative humidity for disease expression.

For experiment [3], the system named is Colletotrichum capsici. The experiment in a line: Colletotrichum capsici (anthracnose) mycelial radial growth on potato dextrose agar. The format is cell-based. The conditions noted are these: Colletotrichum truncatum, 168 h, 25° C., seven days, read-out: control compared to the untreated check. How it is done:
The compounds were dissolved in 0.3% dimethyl sulfoxide and then added to potato dextrose agar medium just prior to dispensing it into petri dishes. 5 mL medium, with the compound in the desired concentration, was dispensed into 60 mm sterile petri-plates. After solidification, each plate was seeded with a 5 mm size mycelial disc taken from the periphery of an actively growing virulent culture plate. The plates were incubated in growth chambers at 25° C. temperature and 60% relative humidity for seven days and the radial growth was measured and compared to the one of the untreated control.

In experiment [4] the test system is Parastagonospora nodorum. The experiment in a line: Parastagonospora nodorum (PARANO) spore growth inhibition in liquid medium, 96-well microtiter plate, OD 600. In kind it is cell-based. The note with it: spore suspension in PDB liquid medium, 18° C., 5-6 days, OD at 600, read-out: control compared to the untreated check. How it is done: Potato dextrose (PDB) liquid medium (Difco) containing a PARANO (10^5 spores/ml) spore suspension was prepared. For the inhibition assay, each test compound was solved in dimethyl sulfoxide. 100 μl of the test compound in media-solution was added to a 96-well microtiter plate, consequently, the same volume (100 μl) of spore suspension was added to the well making the final test concentrations and the plate was incubated at 18° C. for 5-6 days. The growth inhibition was evaluated by measuring the OD at 600. Percent inhibition was calculated with the below formula: […]

Take `CC(c1ccccc1F)C(C)(C)NC(=O)c1cnc2c(c1)c(C1CC1)cn2C` (stereo not shown) [Compound 65, 3-cyclopropyl-N-(3-(2-fluorophenyl)-2-methylbutan-2-yl)-1-methyl-1H-pyrrolo[2,3-b]pyridine-5-carboxamide]: in experiment [1], the inhibition of growth at 300 ppm is not below 70%. The pest or weed control at 500 ppm in experiment [2] is not below 70%.
Turning to `Cn1ccc2cc(C(=O)NC(C)(C)C(O)Cc3ccccc3)cnc21` (stereo not shown) [Compound 116, N-(3-hydroxy-2-methyl-4-phenylbutan-2-yl)-1-methyl-1H-pyrrolo[2,3-b]pyridine-5-carboxamide], the inhibition of growth at 300 ppm in experiment [3] is not below 70%.
Take `C=C(C)CC(C)(COc1ccccc1F)NC(=O)c1cnc2c(c1)c(Br)cn2C` (stereo not shown) [Compound 176, 3-bromo-N-(1-(2-fluorophenoxy)-2,4-dimethylpent-4-en-2-yl)-1-methyl-1H-pyrrolo[2,3-b]pyridine-5-carboxamide]: the inhibition of growth at 300 ppm in experiment [1] and in experiment [4] was not below 70% in each case.
Take `CN(C(=O)c1cnc2c(c1)c(Cl)cn2C)C(C)(C)Cc1ccccc1` [Compound 56, 3-chloro-N,1-dimethyl-N-(2-methyl-1-phenylpropan-2-yl)-1H-pyrrolo[2,3-b] pyridine-5-carboxamide]: the inhibition of growth at 300 ppm in experiment [1] and in experiment [4] was not below 70% throughout. For the same compound, in experiment [2], the pest or weed control at 500 ppm was not below 70%.
Turning to `C[C@H](NC(=O)c1cnc2c(ccn2C)c1)C(O)(c1cc(Cl)cc(Cl)c1)c1cc(Cl)cc(Cl)c1` [Compound 141], the inhibition of growth at 300 ppm in experiment [1] was not below 70%. Also, the pest or weed control at 500 ppm in experiment [2] was not below 70%.
On to `Cn1ccc2cc(C(=O)NC(C)(C)Cc3ccc(Cl)c(Cl)c3)cnc21` [Compound 24, N-(1-(3,4-dichlorophenyl)-2-methylpropan-2-yl)-1-methyl-1H-pyrrolo[2,3-b]pyridine-5-carboxamide], for which, in experiment [1], the inhibition of growth at 300 ppm was not below 70%. Also, the pest or weed control at 500 ppm in experiment [2] is not below 70%.
With `CC(C)CC(C)(Cc1ccccc1F)NC(=O)c1cnc2c(ccn2C)c1` (stereo not shown) [Compound 36, N-(1-(2-fluorophenyl)-2,4-dimethylpentan-2-yl)-1-methyl-1H-pyrrolo[2,3-b]pyridine-5-carboxamide], the inhibition of growth at 300 ppm in experiment [1], in experiment [3] and in experiment [4] was not below 70% throughout.
On to `CC(C)CC(C)(Cc1ccccc1)NC(=O)c1cc2c(nc1Cl)CCC2` (stereo not shown) [Compound 211, 2-chloro-N-(2,4-dimethyl-1-phenylpentan-2-yl)-6,7-dihydro-5H-cyclopenta[b]pyridine-3-carboxamide], for which the inhibition of growth at 300 ppm in experiment [3] and in experiment [4] was not below 70% each time.
Consider `O=C(NC1(C(F)(F)F)CC1)c1cnc2ccsc2c1` [Compound 108, N-(1-(trifluoromethyl)cyclopropyl)thieno [3,2-b]pyridine-6-carboxamide], for which the inhibition of growth at 300 ppm in experiment [1] and in experiment [4] was not below 70% each time.
`C=C(C)CC(C)(Cc1ccc(F)cc1)NC(=O)c1cnc2c(ccn2C)c1` (stereo not shown) [Compound 181, N-(1-(4-fluorophenyl)-2,4-dimethylpent-4-en-2-yl)-1-methyl-1H-pyrrolo[2,3-b]pyridine-5-carboxamide]: the inhibition of growth at 300 ppm in experiment [3] and in experiment [4] was not below 70% in each case.
For the compound `CC(Cc1ccccc1)(CC(F)(F)F)NC(=O)c1cnc2ccsc2c1` (stereo not shown) [Compound 25, N-(4,4,4-trifluoro-2-methyl-1-phenylbutan-2-yl)thieno[3,2-b] pyridine-6-carboxamide], the inhibition of growth at 300 ppm in experiment [1], in experiment [3] and in experiment [4] was not below 70% throughout. The pest or weed control at 500 ppm in experiment [2] is not below 70%.
As to `Cc1nc2c(ccn2C)cc1C(=O)NC(C)(Cc1ccccc1)CC(C)C` (stereo not shown) [Compound 34, N-(2,4-dimethyl-1-phenylpentan-2-yl)-1,6-dimethyl-1H-pyrrolo[2,3-b]pyridine-5-carboxamide], the inhibition of growth at 300 ppm in experiment [1], in experiment [3] and in experiment [4] was not below 70% throughout. Further, the pest or weed control at 500 ppm in experiment [2] is not below 70%.
In the case of `Cn1cc(Br)c2cc(C(=O)NC(C)(C)COC(=O)c3ccccc3C(F)(F)F)cnc21` [Compound 180, 2-(3-bromo-1-methyl-1H-pyrrolo[2,3-b]pyridine-5-carboxamido)-2-methylpropyl 2-(trifluoromethyl)benzoate], the inhibition of growth at 300 ppm in experiment [1] was not below 70%.
As for `Cn1cc(Br)c2cc(C(=O)NC(C)(C)Cc3ccccc3F)cnc21` [Compound 58, 3-bromo-N-(1-(2-fluorophenyl)-2-methylpropan-2-yl)-1-methyl-1H-pyrrolo[2,3-b]pyridine-5-carboxamide], the inhibition of growth at 300 ppm in experiment [1] was not below 70%. In addition, the pest or weed control at 500 ppm in experiment [2] was not below 70%.
Turning to `Cn1cc(Cl)c2cc(C(=O)NC(C)(C)COCc3cc(F)ccc3Cl)cnc21` [Compound 214, 3-chloro-N-(1-((2-chloro-5-fluorobenzyl)oxy)-2-methylpropan-2-yl)-1-methyl-1H-pyrrolo[2,3-b]pyridine-5-carboxamide], the inhibition of growth at 300 ppm in experiment [1] is not below 70%.
Take `CC(C)(Cc1ccccc1)NC(=O)c1cnc2c(c1)CCCC2` [Compound 45, N-(2-methyl-1-phenylpropan-2-yl)-5,6,7,8-tetrahydroquinoline-3-carboxamide]: the inhibition of growth at 300 ppm in experiment [3] and in experiment [4] was not below 70% throughout. In experiment [2], the pest or weed control at 500 ppm was not below 70%.
With `Cc1ccccc1C(=O)OCC(C)(C)NC(=O)c1cnc2c(c1)c(Br)cn2C` [Compound 185, 2-(3-bromo-1-methyl-1H-pyrrolo[2,3-b]pyridine-5-carboxamido)-2-methylpropyl 2-methylbenzoate], in experiment [1], the inhibition of growth at 300 ppm is not below 70%.
`Cn1cc(Cl)c2cc(C(=O)NC(C)(C)COc3ccnc(Cl)c3)cnc21` [Compound 220, 3-chloro-N-(1-((2-chloropyridin-4-yl)oxy)-2-methylpropan-2-yl)-1-methyl-1H-pyrrolo[2,3-b]pyridine-5-carboxamide]: in experiment [1], the inhibition of growth at 300 ppm is not below 70%.
For `Cn1ccc2cc(C(=O)NC(C)(C)Cc3ccc(F)c(F)c3)cnc21` [Compound 23, N-(1-(3,4-difluorophenyl)-2-methylpropan-2-yl)-1-methyl-1H-pyrrolo[2,3-b]pyridine-5-carboxamide], the inhibition of growth at 300 ppm in experiment [1], in experiment [3] and in experiment [4] was not below 70% each time. In addition, in experiment [2], the pest or weed control at 500 ppm was not below 70%.
Regarding `CSc1ccc(C(NC(=O)c2cnc3c(ccn3C)c2)C(C)C)cc1` (stereo not shown) [Compound 90], the inhibition of growth at 300 ppm in experiment [3] and in experiment [4] was not below 70% in each case.
Turning to `Cc1ccc(F)cc1C(O)C(C)(C)NC(=O)c1cnc2ccsc2c1` (stereo not shown) [Compound 133, N-(1-(5-fluoro-2-methylphenyl)-1-hydroxy-2-methylpropan-2-yl)thieno[3,2-b] pyridine-6-carboxamide], in experiment [1], the inhibition of growth at 300 ppm is not below 70%. The pest or weed control at 500 ppm in experiment [2] is not below 70%.
Turning to `CC(C)CC(C)(Cc1ccccc1)NC(=O)c1cnc2ccsc2c1` (stereo not shown) [Compound 29, N-(2,4-dimethyl-1-phenylpentan-2-yl)thieno[3,2-b] pyridine-6-carboxamide], the inhibition of growth at 300 ppm in experiment [1] and in experiment [3] was not below 70% in each case. The pest or weed control at 500 ppm in experiment [2] was not below 70%.
